Read-outs that look alike come from different tables or passages of the source.
What was measured:
[1] = test system: phosphorylation of EGFR (Tyr1068) in NCI-H1975 cell line that harbors the EGFR L858R T790M mutations; experiment: NCI-H1975 pEGFR AlphaLISA assay; format: cell-based; details: 4-5 hours incubation, read-out: Ext pEGFR H1975
In short: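 Phospho-EGFR Tyr1068 AlphaLISA readout: lysates taken from compound-treated H1975 cells (L858R T790M EGFR) after a 4-5 h exposure at 37 °C. Cells had adhered overnight beforehand. IC50 derived by plotting % pEGFR inhibition against log compound concentration.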

EGFR (L858R T790M C797S) = molecular target: T1, EGFR (L858R T790M C797S) (Homo sapiens, UniProt P00533, C797S/L858R/T790M); experiment: Biochemical EGFR inhibition assay (Caliper mobility shift), EGFR LRTMCS mutant; details: inhibitory activity against EGFR LRTMCS mutant; apparent IC50; read-out: Ext Enz LRTMCS
T1 construct: purchased SignalChem E10-122VG
In short: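 Each enzyme was allowed to phosphorylate 10–20% of its peptide at 25° C. before EDTA (35 mM) quench. Separated substrate and product peaks were measured by mobility shift, giving apparent IC50 values.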

[2] = inhibition of phosphorylation of mutant EGFR in NCI-H1975 cells
[3] = Homo sapiens, NCI-H1975, inhibition of phosphorylation of mutant EGFR in NCI-H1975 cells

T1 sequence (P00533 25-1210 T790M/C797S/L858R): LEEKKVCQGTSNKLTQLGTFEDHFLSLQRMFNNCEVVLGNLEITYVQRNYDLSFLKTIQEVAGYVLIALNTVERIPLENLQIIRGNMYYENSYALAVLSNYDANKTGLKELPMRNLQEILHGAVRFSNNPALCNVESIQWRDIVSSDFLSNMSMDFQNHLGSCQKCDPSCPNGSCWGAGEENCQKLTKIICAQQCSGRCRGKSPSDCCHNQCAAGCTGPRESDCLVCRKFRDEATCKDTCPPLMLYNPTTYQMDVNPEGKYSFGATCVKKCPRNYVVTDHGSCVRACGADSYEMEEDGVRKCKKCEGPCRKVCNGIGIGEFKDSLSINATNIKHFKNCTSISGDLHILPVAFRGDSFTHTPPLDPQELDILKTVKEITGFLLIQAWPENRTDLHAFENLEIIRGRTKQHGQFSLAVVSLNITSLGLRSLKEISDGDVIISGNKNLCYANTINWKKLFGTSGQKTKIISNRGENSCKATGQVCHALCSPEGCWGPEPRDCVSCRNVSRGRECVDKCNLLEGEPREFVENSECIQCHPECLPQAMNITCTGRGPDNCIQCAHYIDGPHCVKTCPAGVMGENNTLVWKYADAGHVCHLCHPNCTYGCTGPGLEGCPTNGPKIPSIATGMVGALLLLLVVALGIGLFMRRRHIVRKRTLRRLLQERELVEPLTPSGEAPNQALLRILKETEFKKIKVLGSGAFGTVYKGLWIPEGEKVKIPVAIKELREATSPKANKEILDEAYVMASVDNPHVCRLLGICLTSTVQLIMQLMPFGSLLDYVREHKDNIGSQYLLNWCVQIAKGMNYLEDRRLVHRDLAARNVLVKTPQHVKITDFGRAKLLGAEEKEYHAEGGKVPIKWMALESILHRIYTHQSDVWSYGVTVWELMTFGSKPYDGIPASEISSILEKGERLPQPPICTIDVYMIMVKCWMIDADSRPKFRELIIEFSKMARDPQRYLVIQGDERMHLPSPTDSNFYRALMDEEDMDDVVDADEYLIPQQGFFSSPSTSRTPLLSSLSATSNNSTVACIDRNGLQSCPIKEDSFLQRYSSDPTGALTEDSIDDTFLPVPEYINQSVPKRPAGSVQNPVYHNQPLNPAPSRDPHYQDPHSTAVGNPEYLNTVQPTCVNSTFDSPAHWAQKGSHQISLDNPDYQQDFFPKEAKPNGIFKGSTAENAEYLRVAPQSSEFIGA

| Structure (SMILES) | IC50 [1, 2] | IC50 (EGFR (L858R T790M C797S)) | IC50 [1, 3] |
| --- | --- | --- | --- |
| CO[C@@H]1[C@H](O)CN(c2nccc(Nc3cc4c(C(C)C)ccc(N5CC(CS(C)(=O)=O)C5)c4cn3)n2)CC1(F)F (single isomer, unassigned) [Compound 291, (3R,4R)-5,5-difluoro-1-[4-({8-[3-(methanesulfonylmethyl)azetidin-1-yl]-5-(propan-2-yl)isoquinolin-3-yl}amino)pyrimidin-2-yl]-4-methoxypiperidin-3-ol or (3S,4S)-5,5-difluoro-1-[4-({8-[3-(methanesulfonylmethyl)azetidin-1-yl]-5-(propan-2-yl)isoquinolin-3-yl}amino)pyrimidin-2-yl]-4-methoxypiperidin-3-ol] | ≤ 10 nM | ≤ 15 nM | – |
| CO[C@@H]1CCN(c2nccc(Nc3cc4c(C(C)C)ccc(N5CC(CS(C)(=O)=O)C5)c4cn3)n2)CC1(F)F (single isomer, unassigned) [Compound 159] | – | 15.1 to 20 nM | 20.1 to 30 nM |
| CC(C)c1ccc(N2CC(CS(C)(=O)=O)C2)c2cnc(Nc3ccnc(N4CC[C@](C)(O)[C@](C)(F)C4)n3)cc12 (single isomer, unassigned) [Compound 113, (3R,4S)-3-fluoro-1-[4-({8-[3-(methanesulfonylmethyl)azetidin-1-yl]-5-(propan-2-yl)isoquinolin-3-yl}amino)pyrimidin-2-yl]-3,4-dimethylpiperidin-4-ol or (3S,4R)-3-fluoro-1-[4-({8-[3-(methanesulfonylmethyl)azetidin-1-yl]-5-(propan-2-yl)isoquinolin-3-yl}amino)pyrimidin-2-yl]-3,4-dimethylpiperidin-4-ol] | – | ≤ 15 nM | 10.1 to 20 nM |
| CCS(=O)(=O)CC1CN(c2ncc(C(C)C)c3cc(Nc4ccnc(N5CC[C@@H](O)[C@@](C)(F)C5)n4)ncc23)C1 (single isomer, unassigned) [Compound 124] | – | ≤ 15 nM | ≤ 10 nM |
| CCS(=O)(=O)CC1CN(c2ccc(C(C)C)c3cc(Nc4ccnc(N5CC[C@H](OC)[C@H](F)C5)n4)ncc23)C1 [Compound 262, 8-{3-[(ethanesulfonyl)methyl]azetidin-1-yl}-N-{2-[(3R,4S)-3-fluoro-4-methoxypiperidin-1-yl]pyrimidin-4-yl}-5-(propan-2-yl)isoquinolin-3-amine] | – | ≤ 15 nM | ≤ 10 nM |
| CC(C)c1ccc(N2C[C@H](CS(C)(=O)=O)[C@H]2C)c2cnc(Nc3cnnc(N4CC[C@@H](O)[C@@](C)(F)C4)n3)cc12 (single isomer, unassigned) [Compound 130] | – | ≤ 15 nM | ≤ 10 nM |
| CC(C)c1ccc(N2CC(CS(C)(=O)=O)C2)c2cnc(Nc3ccnc(N4C[C@H]5CC[C@@H](C4)[C@@H]5O)n3)cc12 [Compound 39, Rac (1R,5S,8S)-3-[4-({8-[3-(methanesulfonylmethyl)azetidin-1-yl]-5-(propan-2-yl)isoquinolin-3-yl}amino)pyrimidin-2-yl]-3-azabicyclo[3.2.1]octan-8-ol] | – | ≤ 15 nM | 30.1 to 50 nM |
| CO[C@H]1CCN(c2nccc(Nc3cc4c(C(C)C)ccc(N5C[C@H](CS(C)(=O)=O)[C@H]5C)c4cn3)n2)C[C@H]1C#N (single isomer, unassigned) [Compound 164, (3S,4S)-1-[4-({8-[(2R,3S)-3-(methanesulfonylmethyl)-2-methylazetidin-1-yl]-5-(propan-2-yl)isoquinolin-3-yl}amino)pyrimidin-2-yl]-4-methoxypiperidine-3-carbonitrile or (3R,4R)-1-[4-({8-[(2R,3S)-3-(methanesulfonylmethyl)-2-methylazetidin-1-yl]-5-(propan-2-yl)isoquinolin-3-yl}amino)pyrimidin-2-yl]-4-methoxypiperidine-3-carbonitrile] | ≤ 10 nM | 15.1 to 20 nM | – |
| CCS(=O)(=O)C[C@H]1CN(c2ncc(C(C)C)c3cc(Nc4ccnc(N5CC[C@@](C)(O)[C@@H](F)C5)n4)ncc23)[C@@H]1C (single isomer, unassigned) [Compound 190] | – | ≤ 15 nM | ≤ 10 nM |
| CC(C)c1ccc(N2C[C@H](CS(C)(=O)=O)[C@H]2C)c2cnc(Nc3ccnc(N4CC[C@](C)(O)[C@H](O)C4)n3)cc12 (single isomer, unassigned) [Compound 100, (3R,4S)-1-[4-({8-[(2R,3S)-3-(methanesulfonylmethyl)-2-methylazetidin-1-yl]-5-(propan-2-yl)isoquinolin-3-yl}amino)pyrimidin-2-yl]-4-methylpiperidine-3,4-diol or (3S,4R)-1-[4-({8-[(2R,3S)-3-(methanesulfonylmethyl)-2-methylazetidin-1-yl]-5-(propan-2-yl)isoquinolin-3-yl}amino)pyrimidin-2-yl]-4-methylpiperidine-3,4-diol] | – | ≤ 15 nM | ≤ 10 nM |
| CO[C@H]1CCN(c2nncc(Nc3cc4c(C(C)C)ccc(N5CC(CS(C)(=O)=O)C5)c4cn3)n2)C[C@H]1F [Compound 76, N-{3-[(3R,4S)-3-fluoro-4-methoxypiperidin-1-yl]-1,2,4-triazin-5-yl}-8-[3-(methanesulfonylmethyl)azetidin-1-yl]-5-(propan-2-yl)isoquinolin-3-amine] | – | ≤ 15 nM | ≤ 10 nM |
| COCCO[C@@H]1CCN(c2nccc(Nc3cc4c(F)ccc(N5C[C@H](CS(C)(=O)=O)[C@H]5C)c4cn3)n2)C[C@@H]1F (single isomer, unassigned) [Compound 217] | – | ≤ 15 nM | 20.1 to 30 nM |
| CO[C@H]1CCN(c2nccc(Nc3cc4c(C(C)C)cnc(N5CC(CS(C)(=O)=O)C5)c4cn3)n2)C[C@H]1F [Compound 71, N-{2-[(3R,4S)-3-fluoro-4-methoxypiperidin-1-yl]pyrimidin-4-yl}-8-[3-(methanesulfonylmethyl)azetidin-1-yl]-5-(propan-2-yl)-2,7-naphthyridin-3-amine] | – | ≤ 15 nM | ≤ 10 nM |
| CC[C@@]1(F)CN(c2nccc(Nc3cc4c(C(C)C)ccc(N5C[C@H](CS(C)(=O)=O)[C@H]5C)c4cn3)n2)CC[C@@H]1O (single isomer, unassigned) [Compound 184, (3R,4S)-3-ethyl-3-fluoro-1-[4-({8-[(2R,3S)-3-(methanesulfonylmethyl)-2-methylazetidin-1-yl]-5-(propan-2-yl)isoquinolin-3-yl}amino)pyrimidin-2-yl]piperidin-4-ol or (3S,4R)-3-ethyl-3-fluoro-1-[4-({8-[(2R,3S)-3-(methanesulfonylmethyl)-2-methylazetidin-1-yl]-5-(propan-2-yl)isoquinolin-3-yl}amino)pyrimidin-2-yl]piperidin-4-ol] | – | ≤ 15 nM | ≤ 10 nM |
| CC(C)c1ccc(N2C[C@H](CS(C)(=O)=O)[C@H]2C)c2cnc(Nc3ccnc(N4CC[C@H](O)[C@H](F)C4)n3)cc12 [Compound 311, (3R,4S)-3-fluoro-1-[4-({8-[(2R,3S)-3-(methanesulfonylmethyl)-2-methylazetidin-1-yl]-5-(propan-2-yl)isoquinolin-3-yl}amino)pyrimidin-2-yl]piperidin-4-ol] | – | ≤ 15 nM | ≤ 10 nM |
| COCCO[C@H]1CCN(c2nccc(Nc3cc4c(F)ccc(N5C[C@H](CS(C)(=O)=O)[C@H]5C)c4cn3)n2)C[C@H]1F (single isomer, unassigned) [Compound 216] | – | ≤ 15 nM | 10.1 to 20 nM |
| CC(C)c1ncc(N2C[C@H](CS(C)(=O)=O)[C@H]2C)c2cnc(Nc3ccnc(N4CC[C@@H](O)[C@@](C)(F)C4)n3)cc12 (single isomer, unassigned) [Compound 129] | – | ≤ 15 nM | ≤ 10 nM |
| CO[C@@H]1CN(c2nccc(Nc3cc4c(C(C)C)ccc(N5C[C@H](CS(C)(=O)=O)[C@H]5C)c4cn3)n2)C[C@H](F)[C@@H]1O (single isomer, unassigned) [Compound 204, (3S,4R,5R)-3-fluoro-1-[4-({8-[(2R,3S)-3-(methanesulfonylmethyl)-2-methylazetidin-1-yl]-5-(propan-2-yl)isoquinolin-3-yl}amino)pyrimidin-2-yl]-5-methoxypiperidin-4-ol or (3R,4S,5S)-3-fluoro-1-[4-({8-[(2R,3S)-3-(methanesulfonylmethyl)-2-methylazetidin-1-yl]-5-(propan-2-yl)isoquinolin-3-yl}amino)pyrimidin-2-yl]-5-methoxypiperidin-4-ol] | – | ≤ 15 nM | ≤ 10 nM |
| CC(CF)c1cnc(N2CC(CS(C)(=O)=O)C2)c2cnc(Nc3ccnc(N4CC[C@@H](O)[C@@](C)(F)C4)n3)cc12 (single isomer, unassigned) [Compound 163] | – | ≤ 15 nM | 30.1 to 50 nM |
| CC(C)c1ccc(N2C[C@H](CS(C)(=O)=O)[C@H]2C)c2cnc(Nc3ccnc(N4CC[C@@H](OCCN(C)C)[C@@H](F)C4)n3)cc12 [Compound 254, N-{2-[(3S,4R)-4-[2-(dimethylamino)ethoxy]-3-fluoropiperidin-1-yl]pyrimidin-4-yl}-8-[(2R,3S)-3-(methanesulfonylmethyl)-2-methylazetidin-1-yl]-5-(propan-2-yl)isoquinolin-3-amine] | – | ≤ 15 nM | ≤ 10 nM |

Source: US12172983B2, “EGFR inhibitors” (Blueprint Medicines Corporation, priority 2019, dated 2024)
